Assay results from patent publication US20040063662A1, “Selenophene anti-tumor agents” (priority 1996, published 2004).

Tests used:
[1] = tested on: OVCAR-5; experiment: NCI human tumor cell panel: OVCAR-5 (Ovarian Cancer); assay type: cell-based
[2] = tested on: panel of sixty different human tumor cell lines; experiment: NCI human tumor cell panel: whole panel (mean graph summary)
[3] = tested on: CAKI-1; experiment: NCI human tumor cell panel: CAKI-1 (Renal Cancer); assay type: cell-based
[4] = tested on: COLO 205; experiment: NCI human tumor cell panel: COLO 205 (Colon Cancer); assay type: cell-based
[5] = tested on: SNB-75; experiment: NCI human tumor cell panel: SNB-75 (CNS Cancer); assay type: cell-based
[6] = tested on: RPMI-8226; experiment: NCI human tumor cell panel: RPMI-8226 (Leukemia); assay type: cell-based
[7] = tested on: HCC-2998; experiment: NCI human tumor cell panel: HCC-2998 (Colon Cancer); assay type: cell-based
[8] = tested on: KM12; experiment: NCI human tumor cell panel: KM12 (Colon Cancer); assay type: cell-based
[9] = tested on: K-562; experiment: NCI human tumor cell panel: K-562 (Leukemia); assay type: cell-based
[10] = tested on: HCT-15; experiment: NCI human tumor cell panel: HCT-15 (Colon Cancer); assay type: cell-based
[11] = tested on: DU-145; experiment: NCI human tumor cell panel: DU-145 (Prostate Cancer); assay type: cell-based
[12] = tested on: EKVX; experiment: NCI human tumor cell panel: EKVX (Non-Small Cell Lung Cancer); assay type: cell-based
[13] = tested on: NCI-H522; experiment: NCI human tumor cell panel: NCI-H522 (Non-Small Cell Lung Cancer)
[14] = tested on: OVCAR-8; experiment: NCI human tumor cell panel: OVCAR-8 (Ovarian Cancer); assay type: cell-based
[15] = tested on: RXF-393; experiment: NCI human tumor cell panel: RXF-393 (Renal Cancer); assay type: cell-based
[16] = tested on: SK-MEL-2; experiment: NCI human tumor cell panel: SK-MEL-2 (Melanoma); assay type: cell-based
[17] = tested on: 786-0; experiment: NCI human tumor cell panel: 786-0 (Renal Cancer); assay type: cell-based
[18] = tested on: UO-31; experiment: NCI human tumor cell panel: UO-31 (Renal Cancer); assay type: cell-based
[19] = tested on: SF-268; experiment: NCI human tumor cell panel: SF-268 (CNS Cancer); assay type: cell-based
[20] = tested on: MDA-MB-231/ATCC; experiment: NCI human tumor cell panel: MDA-MB-231/ATCC (Breast Cancer); assay type: cell-based; details: Homo sapiens, MDA-MB-231, MDA-MB-231/ATCC
[21] = tested on: LOX IMVI; experiment: NCI human tumor cell panel: LOX IMVI (Melanoma); assay type: cell-based
[22] = tested on: HL-60(TB); experiment: NCI human tumor cell panel: HL-60(TB) (Leukemia); assay type: cell-based
[23] = tested on: IGROV1; experiment: NCI human tumor cell panel: IGROV1 (Ovarian Cancer); assay type: cell-based
[24] = tested on: SW-620; experiment: NCI human tumor cell panel: SW-620 (Colon Cancer); assay type: cell-based
[25] = tested on: T-47D; experiment: NCI human tumor cell panel: T-47D (Breast Cancer); assay type: cell-based; details: T47D
[26] = read-out: Log10 GI50 (converted)
[27] = read-out: Log10 TGI (converted)

In the case of OCc1ccc(-c2ccc(-c3ccc[se]3)[se]2)[se]1 [compound 675246], the GI50 ([1]; OVCAR-5, read-out: Log10 GI50 (converted)) is reported as 0.182 µM, the IC (TGI) ([1]; OVCAR-5, read-out: Log10 TGI (converted)) is reported as 25.1 µM and the GI50 ([2]; Homo sapiens, read-out: Log10 GI50, MG_MID, mean over the panel (converted)) is reported as 1.66 µM. The CC50 ([2]; Homo sapiens, read-out: Log10 LC50, MG_MID, mean over the panel (converted)) was 51.3 µM, the “Log10 TGI, MG_MID” value ([2]; mean over the panel) was −4.91 and the “Log10 TGI, Delta” value ([2]; whole panel) was 2.14. The “Log10 TGI, Range” value ([2]; whole panel) was 3.04, the GI50 ([3]; CAKI-1, read-out: Log10 GI50 (converted)) was 5.37 µM and the IC (TGI) ([3]; CAKI-1, read-out: Log10 TGI (converted)) was 18.6 µM. It also gave a GI50 ([4]; COLO 205, read-out: Log10 GI50 (converted)) of 1 µM, an IC (TGI) ([4]; COLO 205, read-out: Log10 TGI (converted)) of 4.07 µM and a GI50 ([5]; SNB-75, read-out: Log10 GI50 (converted)) of 3.89 µM. For the same compound, the IC (TGI) ([5]; SNB-75, read-out: Log10 TGI (converted)) was over 100 µM, the GI50 ([6]; RPMI-8226, read-out: Log10 GI50 (converted)) was 7.41 µM and the IC (TGI) ([6]; RPMI-8226, read-out: Log10 TGI) was over 100 µM. The GI50 ([7]; HCC-2998, read-out: Log10 GI50 (converted)) was 1.23 µM, the IC (TGI) ([7]; HCC-2998, read-out: Log10 TGI (converted)) was 11.7 µM and the GI50 ([8]; KM12, read-out: Log10 GI50 (converted)) was 4.17 µM. The IC (TGI) ([8]; KM12, read-out: Log10 TGI (converted)) was 17 µM, the GI50 ([9]; K562, K-562, read-out: Log10 GI50 (converted)) was 0.372 µM and the IC (TGI) ([9]; K562, K-562, read-out: Log10 TGI (converted)) was 7.59 µM. The GI50 ([10]; HCT-15, read-out: Log10 GI50 (converted)) was 4.27 µM, the IC (TGI) ([10]; HCT-15, read-out: Log10 TGI (converted)) was 17.8 µM and the GI50 ([11]; DU-145, read-out: Log10 GI50 (converted)) was 10.2 µM. It also gave an IC (TGI) ([11]; DU-145, read-out: Log10 TGI (converted)) of 21.9 µM, a GI50 [12, 26] of 5.5 µM and an IC (TGI) [12, 27] of 17.4 µM. For the same compound, the GI50 ([13]; NCI-H522, read-out: Log10 GI50 (converted)) was 2.45 µM, the IC (TGI) ([13]; NCI-H522, read-out: Log10 TGI) was 6.61 µM and the GI50 ([14]; OVCAR-8, read-out: Log10 GI50 (converted)) was 5.01 µM. It also gave an IC (TGI) ([14]; OVCAR-8, read-out: Log10 TGI (converted)) of 33.1 µM, a GI50 ([15]; RXF-393, read-out: Log10 GI50 (converted)) of 0.0209 µM and an IC (TGI) ([15]; RXF-393, read-out: Log10 TGI (converted)) of 0.0912 µM. For the same compound, the GI50 ([16]; SK-MEL-2, read-out: Log10 GI50 (converted)) was 9.12 µM, the IC (TGI) ([16]; SK-MEL-2, read-out: Log10 TGI (converted)) was 25.7 µM and the GI50 ([17]; 786-0, read-out: Log10 GI50 (converted)) was 2.19 µM. It also gave an IC (TGI) ([17]; 786-0, read-out: Log10 TGI (converted)) of 5.25 µM, a GI50 ([18]; UO-31, read-out: Log10 GI50 (converted)) of 6.17 µM and an IC (TGI) ([18]; UO-31, read-out: Log10 TGI (converted)) of 38.9 µM. The GI50 ([19]; SF-268, read-out: Log10 GI50 (converted)) was 4.07 µM, the IC (TGI) ([19]; SF-268, read-out: Log10 TGI (converted)) was over 100 µM and the GI50 [20, 26] was 4.37 µM. It also gave an IC (TGI) [20, 27] of 33.9 µM, a GI50 [21, 26] of 3.63 µM and an IC (TGI) [21, 27] of 9.77 µM. For the same compound, the GI50 [22, 26] was 5.75 µM, the IC (TGI) ([22]; read-out: Log10 TGI) was over 100 µM and the GI50 ([23]; IGROV-1, IGROV1, read-out: Log10 GI50 (converted)) was 0.0537 µM. The IC (TGI) ([23]; IGROV-1, IGROV1, read-out: Log10 TGI (converted)) was 2.24 µM, the GI50 ([24]; SW-620, read-out: Log10 GI50 (converted)) was 0.417 µM and the IC (TGI) ([24]; SW-620, read-out: Log10 TGI (converted)) was 10.2 µM. The GI50 [25, 26] was 3.8 µM and the IC (TGI) [25, 27] was 15.1 µM.
